Values quoted from earlier work in US20020099100A1, “Treatment of dry eye syndrome” (priority 2000, published 2002).

Tested on: dry eye syndrome
Settings: in vivo

Vitamin A
Underlying cellular changes that lead to dry eye syndrome: reverse many of the underlying cellular changes
